Experimental data taken from patent US4382920A, “Hormone-like peptides and use thereof” (Perignon Investments Ltd., priority 1980, dated 1983).

Experiment: Body temperature of mice after intravenous injection
Type: in vivo
Details: for body temperature at 0 min: amount injected as listed per substance
Method: Type: Out-breed, white NMRI
Average body weight: 24-27 gm
Diet: Standard food pellet
Mice fasted 12-15 hrs. prior to testing (water given during this period)
Mice all separated from one another
Mice kept in quiet and dark environment
Testing time: 1 p.m.-3 p.m. each day
Test solution is prepared by:
(b) dissolving a known amount of the refined brain extract in 0.4 ml of trishydrochloric buffer and adjusting the pH of the solution to from about 7.0 to about 7.4 by titrating with microdrops of 1 M or 0.1 M sodium hydroxide solution.
Volume of solution injected into mice:
Solution is at room temperature when injected into mice.
Mouse is placed in restrainer
Injection is made in the tail vein
Injection time: 2 minutes
Body temperature is measured by inserting a thermistor into the anal cavity to a depth of 11/2 cm (thermistor is made by Thermovit, Fu. Armatherm, Lemgo, W. Germany)
Temperature measurements are begun immediately after injection, i.e., 2 minutes after injection started
The extract obtained from the brain of 40 lungfish is used. Five mice are used in obtaining the data on the aroused lungfish and nine mice are used for the data on the estivating lungfish.

## N[C@@H](CC(=O)O)C(=O)O [ASPARTIC ACID]
pH 7.0-7.4
  body temperature at 0 min: 36.7
  body temperature at 2 min: 35.5
  body temperature at 5 min: 36.7
  body temperature at 10 min: 38.0
  body temperature at 20 min: 37.5
  body temperature at 30 min: 37.6
  body temperature at 40 min: 37.8
  body temperature at 50 min: 37.8
  body temperature at 60 min: 37.8

## O=C([O-])O.[K+] [3.0 M KHCO3, KHCO3]
pH 7.0-7.4
  body temperature at 0 min: 37.1
pH 7.0-7.4, listed as 0.3 M KHCO3
  body temperature at 0 min: 37.6
pH 7.0-7.4, listed as 1.0 M KHCO3
  body temperature at 0 min: 38.0
  body temperature at 2 min: 34.7
  body temperature at 5 min: 35.0
  body temperature at 10 min: 36.5
  body temperature at 20 min: 37.8
  body temperature at 30 min: 37.9
  body temperature at 40 min: 38.4
  body temperature at 50 min: 38.4
  body temperature at 60 min: 38.0
Listed as 0.3 M KHCO3
  body temperature at 2 min: 36.3
  body temperature at 5 min: 37.2
  body temperature at 10 min: 38.0
  body temperature at 30 min: 38.3
  body temperature at 50 min: 38.3
Listed as 1.0 M KHCO3
  body temperature at 2 min: 37.2
  body temperature at 5 min: 37.3
  body temperature at 10 min: 38.5
  body temperature at 20 min: 39.5
  body temperature at 30 min: 39.0
  body temperature at 40 min: 39.1

## O=C(O)CCCC(=O)O [GLUTARIC ACID]
pH 7.0-7.4
  body temperature at 0 min: 36.6
  body temperature at 2 min: 36.5
  body temperature at 5 min: 37.0
  body temperature at 10 min: 38.1
  body temperature at 20 min: 38.5
  body temperature at 30 min: 38.5
  body temperature at 40 min: 38.4
  body temperature at 50 min: 38.6
  body temperature at 60 min: 39.0

## [Cl-].[Na+] [3.0 M NaCl, NaCl]
pH 7.0-7.4
  body temperature at 0 min: 36.0
  body temperature at 2 min: 34.9
  body temperature at 5 min: 36.5
  body temperature at 10 min: 38.1
  body temperature at 20 min: 37.9
  body temperature at 30 min: 37.4
  body temperature at 40 min: 37.4
  body temperature at 50 min: 37.6
  body temperature at 60 min: 37.7

## CC(=O)[O-].[Na+] [1.0 M SODIUM ACETATE, SODIUM ACETATE]
pH 7.0-7.4
  body temperature at 0 min: 37.0
pH 7.0-7.4, listed as 3.0 M SODIUM ACETATE
  body temperature at 0 min: 37.5
  body temperature at 5 min: 37.5
  body temperature at 10 min: 38.0
  body temperature at 20 min: 38.3
  body temperature at 30 min: 38.5
  body temperature at 40 min: 38.0
  body temperature at 50 min: 38.1
  body temperature at 60 min: 38.2
Listed as 3.0 M SODIUM ACETATE
  body temperature at 5 min: 36.2
  body temperature at 10 min: 37.0
  body temperature at 20 min: 38.0
  body temperature at 30 min: 37.7
  body temperature at 40 min: 38.1
  body temperature at 50 min: 38.6
  body temperature at 60 min: 38.5

## N[C@@H](Cc1c[nH]c2ccccc12)C(=O)O [TRYPTOPHAN]
pH 7.0-7.4
  body temperature at 0 min: 36.9
  body temperature at 2 min: 36.4
  body temperature at 5 min: 36.8
  body temperature at 10 min: 37.1
  body temperature at 20 min: 37.4
  body temperature at 30 min: 36.5
  body temperature at 40 min: 36.8
  body temperature at 50 min: 37.0
  body temperature at 60 min: 36.9
